Experimental findings from ChEMBL document CHEMBL1781991, “Heteroalicyclic carboxamidines as inhibitors of inducible nitric oxide synthase; the identification of (2R)-2-pyrrolidinecarboxamidine as a potent and selective haem-co-ordinating inhibitor” (Bioorg Med Chem Lett, 2011) are described below.

pIC50, pKd: −log10 of the molar value. Bounds are passed on as bounds.

Assay [1] deals with T1, Nitric oxide synthase, inducible (Homo sapiens, UniProt P35228). As to the kind of experiment: Inhibition of human recombinant iNOS by microtiter plate assay.
The next assay concerns the target T2, Nitric oxide synthase 3 (Homo sapiens, UniProt P29474).
T2 sequence (P29474 whole entry): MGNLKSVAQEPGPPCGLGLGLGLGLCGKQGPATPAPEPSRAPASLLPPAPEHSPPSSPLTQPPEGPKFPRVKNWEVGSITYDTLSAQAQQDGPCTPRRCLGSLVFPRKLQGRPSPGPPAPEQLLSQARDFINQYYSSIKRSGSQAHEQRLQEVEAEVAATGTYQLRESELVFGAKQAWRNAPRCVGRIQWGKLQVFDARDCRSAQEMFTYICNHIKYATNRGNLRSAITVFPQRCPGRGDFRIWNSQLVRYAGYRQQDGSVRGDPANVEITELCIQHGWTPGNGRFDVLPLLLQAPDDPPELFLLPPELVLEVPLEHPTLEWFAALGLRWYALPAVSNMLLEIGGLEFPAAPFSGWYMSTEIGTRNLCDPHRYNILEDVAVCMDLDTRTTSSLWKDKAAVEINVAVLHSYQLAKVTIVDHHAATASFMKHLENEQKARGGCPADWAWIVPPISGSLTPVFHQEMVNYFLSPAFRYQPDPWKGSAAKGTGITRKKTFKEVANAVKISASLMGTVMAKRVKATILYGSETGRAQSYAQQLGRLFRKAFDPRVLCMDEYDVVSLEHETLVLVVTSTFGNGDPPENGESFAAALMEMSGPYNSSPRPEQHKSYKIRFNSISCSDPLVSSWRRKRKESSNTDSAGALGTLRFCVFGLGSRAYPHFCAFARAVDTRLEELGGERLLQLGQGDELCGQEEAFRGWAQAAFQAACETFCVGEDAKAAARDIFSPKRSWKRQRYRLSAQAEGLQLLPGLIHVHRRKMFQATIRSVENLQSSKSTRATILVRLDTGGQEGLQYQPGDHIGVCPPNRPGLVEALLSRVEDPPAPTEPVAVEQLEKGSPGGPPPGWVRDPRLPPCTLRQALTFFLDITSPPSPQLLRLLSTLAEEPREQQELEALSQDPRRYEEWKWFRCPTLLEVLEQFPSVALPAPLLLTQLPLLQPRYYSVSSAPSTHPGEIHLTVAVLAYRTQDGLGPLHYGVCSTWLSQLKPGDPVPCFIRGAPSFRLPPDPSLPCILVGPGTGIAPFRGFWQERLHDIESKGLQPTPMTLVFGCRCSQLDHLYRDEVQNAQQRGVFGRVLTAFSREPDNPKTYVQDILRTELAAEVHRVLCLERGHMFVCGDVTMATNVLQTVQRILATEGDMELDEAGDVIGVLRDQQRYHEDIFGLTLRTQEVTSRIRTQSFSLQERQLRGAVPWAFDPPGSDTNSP
As to the kind of experiment: Inhibition of human recombinant eNOS by microtiter plate assay.

For the next assay, the target named is Nitric oxide synthase 1 (Homo sapiens, UniProt P29475). The experiment in a line: Inhibition of human recombinant nNOS by microtiter plate assay.
For assay [2], the target named is T1, Nitric oxide synthase, inducible. As to the kind of experiment: Binding affinity to human recombinant iNOS delta 65 residue.

Nitric oxide synthase 1, sequence (P29475 whole entry): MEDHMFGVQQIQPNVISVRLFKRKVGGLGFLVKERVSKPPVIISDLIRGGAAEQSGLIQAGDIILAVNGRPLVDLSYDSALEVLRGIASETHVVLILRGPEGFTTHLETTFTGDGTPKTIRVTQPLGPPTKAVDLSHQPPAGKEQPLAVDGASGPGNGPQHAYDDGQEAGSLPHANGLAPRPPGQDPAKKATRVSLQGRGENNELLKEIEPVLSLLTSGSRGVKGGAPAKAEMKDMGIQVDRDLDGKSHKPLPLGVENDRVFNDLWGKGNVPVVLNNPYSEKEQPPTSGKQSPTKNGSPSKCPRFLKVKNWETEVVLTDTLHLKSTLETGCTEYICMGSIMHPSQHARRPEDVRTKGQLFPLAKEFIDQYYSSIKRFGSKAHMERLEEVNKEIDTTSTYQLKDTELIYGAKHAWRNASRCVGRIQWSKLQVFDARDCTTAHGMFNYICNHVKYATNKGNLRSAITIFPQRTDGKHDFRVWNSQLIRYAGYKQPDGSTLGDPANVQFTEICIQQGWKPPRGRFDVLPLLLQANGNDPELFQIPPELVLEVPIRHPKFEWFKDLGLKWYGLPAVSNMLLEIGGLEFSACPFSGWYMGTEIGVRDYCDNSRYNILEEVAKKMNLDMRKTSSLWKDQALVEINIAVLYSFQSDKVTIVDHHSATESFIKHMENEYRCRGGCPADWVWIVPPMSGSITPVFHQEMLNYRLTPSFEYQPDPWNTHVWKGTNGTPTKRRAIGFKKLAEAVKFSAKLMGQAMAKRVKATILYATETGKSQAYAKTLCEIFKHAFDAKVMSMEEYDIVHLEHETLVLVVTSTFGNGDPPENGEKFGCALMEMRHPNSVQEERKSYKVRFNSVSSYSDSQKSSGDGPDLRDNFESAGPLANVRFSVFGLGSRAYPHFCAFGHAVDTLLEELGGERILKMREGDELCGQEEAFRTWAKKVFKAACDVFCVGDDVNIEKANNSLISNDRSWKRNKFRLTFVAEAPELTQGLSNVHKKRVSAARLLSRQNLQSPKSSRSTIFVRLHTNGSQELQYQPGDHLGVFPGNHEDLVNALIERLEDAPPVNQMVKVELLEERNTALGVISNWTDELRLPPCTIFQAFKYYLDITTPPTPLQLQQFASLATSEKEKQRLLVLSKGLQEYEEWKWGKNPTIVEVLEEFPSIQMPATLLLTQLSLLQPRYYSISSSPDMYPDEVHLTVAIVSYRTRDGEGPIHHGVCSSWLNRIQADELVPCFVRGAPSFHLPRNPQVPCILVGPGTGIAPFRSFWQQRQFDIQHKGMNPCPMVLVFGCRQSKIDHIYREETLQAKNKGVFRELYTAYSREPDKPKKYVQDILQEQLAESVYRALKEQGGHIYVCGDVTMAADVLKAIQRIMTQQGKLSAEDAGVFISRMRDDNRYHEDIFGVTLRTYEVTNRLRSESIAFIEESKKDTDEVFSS
T1 sequence (P35228 whole entry): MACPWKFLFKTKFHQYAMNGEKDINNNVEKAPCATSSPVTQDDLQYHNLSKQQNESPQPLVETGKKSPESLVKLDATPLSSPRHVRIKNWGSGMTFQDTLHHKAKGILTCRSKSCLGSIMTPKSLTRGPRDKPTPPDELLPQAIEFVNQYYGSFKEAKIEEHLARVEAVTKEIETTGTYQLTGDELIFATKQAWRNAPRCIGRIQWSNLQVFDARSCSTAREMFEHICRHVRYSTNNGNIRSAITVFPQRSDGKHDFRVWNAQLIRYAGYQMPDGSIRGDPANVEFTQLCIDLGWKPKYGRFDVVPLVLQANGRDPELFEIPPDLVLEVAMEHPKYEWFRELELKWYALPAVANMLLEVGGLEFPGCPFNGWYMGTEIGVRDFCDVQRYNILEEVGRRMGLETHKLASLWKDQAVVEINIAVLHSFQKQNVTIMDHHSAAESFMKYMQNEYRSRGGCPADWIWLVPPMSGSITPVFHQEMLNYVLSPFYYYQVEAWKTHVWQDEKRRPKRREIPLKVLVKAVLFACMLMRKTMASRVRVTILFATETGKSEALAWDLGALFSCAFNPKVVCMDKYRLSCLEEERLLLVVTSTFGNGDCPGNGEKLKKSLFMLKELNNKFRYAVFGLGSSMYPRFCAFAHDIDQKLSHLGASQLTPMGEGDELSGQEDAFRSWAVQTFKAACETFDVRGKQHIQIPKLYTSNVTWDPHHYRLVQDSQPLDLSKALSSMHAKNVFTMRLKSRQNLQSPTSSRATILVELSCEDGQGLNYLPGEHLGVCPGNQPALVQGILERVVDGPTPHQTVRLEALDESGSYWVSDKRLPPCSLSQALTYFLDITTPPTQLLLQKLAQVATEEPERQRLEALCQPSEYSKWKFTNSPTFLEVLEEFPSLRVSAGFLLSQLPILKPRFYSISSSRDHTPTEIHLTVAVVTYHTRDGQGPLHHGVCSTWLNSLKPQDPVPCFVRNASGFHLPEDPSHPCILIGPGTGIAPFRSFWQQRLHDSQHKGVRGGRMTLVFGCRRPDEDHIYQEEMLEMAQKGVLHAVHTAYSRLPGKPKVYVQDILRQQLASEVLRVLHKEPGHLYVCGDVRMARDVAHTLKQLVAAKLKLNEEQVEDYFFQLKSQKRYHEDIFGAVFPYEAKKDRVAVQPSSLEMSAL

The term pIC50 denotes −log10 of the IC50, conventionally taken in molar units. Consider `[H]/N=C(/N)C1CCCC1` [CYCLOPENTANECARBOXIMIDAMIDE], for which the pIC50 in assay [1] is 5.36.
Still for that read-out and setting: for `N=C(N)C1CCNCC1` the value was 4.24.
`N=C(N)[C@H]1CCN1`: the pIC50 is 7.52 in assay [1], 6.60 on Nitric oxide synthase 3 and 6.59 at Nitric oxide synthase 1.
A word on the pKd: it is the Kd on a negative log10 scale, so that one unit is a factor of ten. With `N=C(N)[C@@H]1CCCN1`, the values for the pIC50 (in assay [1]; on Nitric oxide synthase 3; at Nitric oxide synthase 1) were 5.03, below 4.00 and below 4.00, respectively. Moreover, the pKd in assay [2] was below 4.40.
Consider `N=C(N)C1CCC1` [CYCLOBUTANECARBOXIMIDAMIDE], for which, in assay [1], the pIC50 was 6.42.
Still for that read-out and setting: the value for `N=C(N)C1CNC1` was 4.85; that for `N=C(N)C1CCCCN1` (stereo not given) was below 4.00.
Same read-out and setting: the value for `N=C(N)C1CC1` [CYCLOPROPANECARBOXIMIDAMIDE] was 6.10; that for `N=C(N)C1CCCO1` (stereo not given) was 5.05; that for `N=C(N)C1C=CCN1` (stereo not given) was 6.74.
For `N=C(N)[C@@H]1CCN1`, the pIC50 in assay [1] is 6.70; on Nitric oxide synthase 3, 5.62; at Nitric oxide synthase 1, 5.77.
For the compound `N=C(N)[C@H]1CCCN1`, the results for the pIC50 (in assay [1]; on Nitric oxide synthase 3; on Nitric oxide synthase 1) were 6.92, 4.82 and 4.85, respectively. In addition, the negative-log Kd (pKd) in assay [2] was 6.20.
As to `N=C(N)C1CCCNC1` (stereo not given), the pIC50 in assay [1] was 4.29.
Regarding `N=C(N)C1CCCN1` (stereo not given), in assay [1], the pIC50 is 6.15.
Still for that read-out and setting: for `N=C(N)C1CCCS1` (stereo not given) the value was 5.28.
